Experimental data reported in paper PMC3148428 (2011).

Biological target: T1, ABCG2 (Rattus norvegicus, UniProt Q80W57)
T1 sequence (Q80W57 1-657): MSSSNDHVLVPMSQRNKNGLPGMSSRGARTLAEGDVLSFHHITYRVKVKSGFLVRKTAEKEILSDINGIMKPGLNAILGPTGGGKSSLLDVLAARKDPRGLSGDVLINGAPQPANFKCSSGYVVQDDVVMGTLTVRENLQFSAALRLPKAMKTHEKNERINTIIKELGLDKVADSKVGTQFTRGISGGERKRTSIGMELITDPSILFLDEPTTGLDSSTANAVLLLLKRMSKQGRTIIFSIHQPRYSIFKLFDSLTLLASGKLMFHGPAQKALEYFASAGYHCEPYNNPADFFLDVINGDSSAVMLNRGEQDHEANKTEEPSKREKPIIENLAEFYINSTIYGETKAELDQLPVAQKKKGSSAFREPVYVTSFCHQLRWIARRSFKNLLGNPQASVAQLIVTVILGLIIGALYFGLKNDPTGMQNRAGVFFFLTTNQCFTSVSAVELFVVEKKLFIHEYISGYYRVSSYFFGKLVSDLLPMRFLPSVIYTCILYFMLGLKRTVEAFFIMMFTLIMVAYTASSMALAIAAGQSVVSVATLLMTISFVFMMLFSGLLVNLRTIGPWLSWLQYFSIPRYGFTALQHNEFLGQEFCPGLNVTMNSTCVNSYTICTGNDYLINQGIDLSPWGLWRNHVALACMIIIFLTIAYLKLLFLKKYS

IC50: 93.2 nM
Structure (SMILES): Cc1cn(-c2cc(NC(=O)c3ccc(C)c(Nc4nccc(-c5cccnc5)n4)c3)cc(C(F)(F)F)c2)cn1 [Tasigna]
